Laboratory results: ChEMBL document CHEMBL1201862, “PubChem BioAssay data set” (2004)
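Five concentrations, 48 hours, 96-well plates. GI50 is the concentration that inhibits growth by half.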 Activity calls are given as the source filed them. Cut-off read from the data, not from the text of the source: active = GI50 up to about 1.1 µM and inactive = higher.

Legend:
Assay in all cases: growth of human tumour cells (NCI), 48 h
[1] = tested on: K562
[2] = tested on: MDA-MB-231
[3] = tested on: ACHN
[4] = tested on: SK-MEL-5
[5] = tested on: OVCAR-4
[6] = tested on: NCI/ADR-RES
[7] = tested on: IGROV-1
[8] = tested on: UACC-62
[9] = tested on: HOP-92
[10] = tested on: HOP-62
[11] = tested on: NCI-H460
[12] = tested on: SK-MEL-28
[13] = tested on: U-251
[14] = tested on: HL-60
[15] = tested on: T47D
[16] = tested on: Hs-578T
[17] = tested on: SF-539
[18] = tested on: NCI-H23
[19] = tested on: UO-31
[20] = tested on: SR

| Compound | GI50 [1] | GI50 [2] | GI50 [3] | GI50 [4] | GI50 [5] | GI50 [6] | GI50 [7] | GI50 [8] | GI50 [9] | GI50 [10] | GI50 [11] | GI50 [12] | GI50 [13] | GI50 [14] | GI50 [15] | GI50 [16] | GI50 [17] | GI50 [18] | GI50 [19] | GI50 [20] |
| --- | --- | --- | --- | --- | --- | --- | --- | --- | --- | --- | --- | --- | --- | --- | --- | --- | --- | --- | --- | --- |
| Nc1nn2c(C(Br)Br)cc(C(Br)Br)nc2c1[N+](=O)[O-] | 0.248 µM (active) | 1.6 µM (inactive) | 0.861 µM (active) | 1.49 µM (inactive) | 1.45 µM (inactive) | 2.78 µM (inactive) | 1.21 µM (inactive) | 1.81 µM (inactive) | 1.17 µM (inactive) | 1.88 µM (inactive) | 2.41 µM (inactive) | 1.53 µM (inactive) | 0.668 µM (active) | 0.178 µM (active) | 0.667 µM (active) | 2.36 µM (inactive) | 0.785 µM (active) | 1.98 µM (inactive) | 1.25 µM (inactive) | 0.283 µM (active) |
| O=c1cnn(C/C=C/CBr)c(=O)[nH]1 | 21.4 µM (inactive) | 21.9 µM (inactive) | 16.7 µM (inactive) | 13.1 µM (inactive) | 20.6 µM (inactive) | 23.3 µM (inactive) | 16.2 µM (inactive) | – | 14.6 µM (inactive) | 17.9 µM (inactive) | 17.2 µM (inactive) | 19.2 µM (inactive) | 15 µM (inactive) | 8.47 µM (inactive) | 19.1 µM (inactive) | 33 µM (inactive) | 16.1 µM (inactive) | – | 14.1 µM (inactive) | 17.7 µM (inactive) |
| O=C(c1ccccc1)N1CCN(C(=S)N(C(=O)c2ccccc2)c2ccccc2)C1=S | 2.41 µM (inactive) | 10.3 µM (inactive) | 2.79 µM (inactive) | 13.5 µM (inactive) | 4.6 µM (inactive) | 5.16 µM (inactive) | 3.52 µM (inactive) | 3.76 µM (inactive) | 6.37 µM (inactive) | 10.3 µM (inactive) | 17.5 µM (inactive) | 3.27 µM (inactive) | 6.79 µM (inactive) | 2.25 µM (inactive) | 4.68 µM (inactive) | 3.1 µM (inactive) | 2.62 µM (inactive) | 3.05 µM (inactive) | 2.56 µM (inactive) | 2.07 µM (inactive) |
| C/C=C1\C[C@@H]2C(OC)Nc3cc(O)c(OC)cc3C(=O)N2C1 (stereo partly drawn) | < 0.01 µM (active) | < 0.01 µM (active) | 0.00179 µM (active) | < 0.01 µM (active) | < 0.01 µM (active) | < 0.01 µM (active) | < 0.01 µM (active) | < 0.01 µM (active) | < 0.01 µM (active) | < 0.01 µM (active) | < 0.01 µM (active) | < 0.0107 µM (active) | < 0.01 µM (active) | < 0.01 µM (active) | 0.0141 µM (active) | 0.0142 µM (active) | < 0.01 µM (active) | – | < 0.01 µM (active) | 0.000431 µM (active) |
| COC(=O)C1(C)CCCC2(C)C3CCC4CC3(C=C4CO)CCC12 (stereo not drawn) | – | 73.5 µM (inactive) | 41 µM (inactive) | 37.2 µM (inactive) | 68.2 µM (inactive) | 24.4 µM (inactive) | > 100 µM (inactive) | > 100 µM (inactive) | 55.1 µM (inactive) | 75 µM (inactive) | – | 66.7 µM (inactive) | 57.4 µM (inactive) | 20.6 µM (inactive) | 34.4 µM (inactive) | > 100 µM (inactive) | 32.1 µM (inactive) | 38.1 µM (inactive) | 32.9 µM (inactive) | 27.6 µM (inactive) |
| COc1ccc2cc1Oc1ccc(cc1)CC1c3cc(OC)c(cc3CCN1C)Oc1c(OC)c(OC)cc3c1C(C2)N(C)CC3 (stereo not drawn) | 7.94 µM (inactive) | 10 µM (inactive) | 9.57 µM (inactive) | 6.79 µM (inactive) | 10.6 µM (inactive) | 14 µM (inactive) | 18.8 µM (inactive) | 12.8 µM (inactive) | 16.3 µM (inactive) | – | 10.2 µM (inactive) | 14.5 µM (inactive) | 10.2 µM (inactive) | 4.71 µM (inactive) | 9.93 µM (inactive) | 10.8 µM (inactive) | 8.95 µM (inactive) | 15.1 µM (inactive) | 9.42 µM (inactive) | 1.17 µM (inactive) |
| CO[P@@]1(=O)O[C@@H](c2ccccc2)[C@H](O)[C@@]1(O)c1ccccc1 | > 100 µM (inactive) | > 100 µM (inactive) | > 100 µM (inactive) | > 100 µM (inactive) | > 100 µM (inactive) | > 100 µM (inactive) | > 100 µM (inactive) | > 100 µM (inactive) | > 100 µM (inactive) | – | > 100 µM (inactive) | > 100 µM (inactive) | > 100 µM (inactive) | > 100 µM (inactive) | > 100 µM (inactive) | 91.8 µM (inactive) | > 100 µM (inactive) | > 100 µM (inactive) | > 100 µM (inactive) | 10.2 µM (inactive) |
